Results reported in paper PMC11707700, “Exploiting fourth-generation synchrotron radiation for enzyme and photoreceptor characterization” (IUCrJ, 2025).

Columns and labels:
[1] = biological target: T1, photoactive yellow protein (PYP) (Halorhodospira halophila, UniProt P16113); assay: serial synchrotron X-ray crystallography (room temperature); format: binding; details: covalent; thioester to conserved cysteine; space group P6_5, 1.8 A (fixed target) and 1.9 A (tape drive); PEG 4000, MES pH 6.5
T1 construct: full length, 125 amino acids, 14 kDa; overexpressed in Escherichia coli; chromophore attached to the conserved cysteine
T1 sequence (P16113 1-125): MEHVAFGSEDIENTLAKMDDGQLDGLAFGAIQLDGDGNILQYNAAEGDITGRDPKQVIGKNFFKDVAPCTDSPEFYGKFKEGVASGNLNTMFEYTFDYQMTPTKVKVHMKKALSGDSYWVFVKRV

SaBphP2-PCM = biological target: T2, SaBphP2-PCM (Allostigmatella aurantiaca, UniProt Q09E27); assay: as above; format: binding; details: covalent; chromophore; dark Pr state, 2.1 A refinement; also difference map 700 ms after 640 nm light
T2 construct: gene STIAU_8420; photosensory core module (PAS-GAF-PHY), lacks C-terminal effector (histidine kinase) domain; recombinant; homodimer
T2 sequence (Q09E27 1-490): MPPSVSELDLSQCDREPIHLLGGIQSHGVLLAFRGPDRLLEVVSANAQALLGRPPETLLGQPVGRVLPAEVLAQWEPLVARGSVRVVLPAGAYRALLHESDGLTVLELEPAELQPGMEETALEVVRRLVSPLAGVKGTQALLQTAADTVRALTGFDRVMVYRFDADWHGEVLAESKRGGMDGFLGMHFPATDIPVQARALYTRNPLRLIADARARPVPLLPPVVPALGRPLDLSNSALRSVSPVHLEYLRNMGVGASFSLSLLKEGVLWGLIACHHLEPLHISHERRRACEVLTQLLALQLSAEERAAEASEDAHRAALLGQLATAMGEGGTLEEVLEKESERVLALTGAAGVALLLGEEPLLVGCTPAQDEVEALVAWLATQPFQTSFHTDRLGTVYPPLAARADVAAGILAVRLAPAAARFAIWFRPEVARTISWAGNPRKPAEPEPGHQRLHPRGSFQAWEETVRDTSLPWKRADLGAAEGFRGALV

Structure (SMILES)	serial synchrotron X-ray crystallography (room temperature) [1]	serial synchrotron X-ray crystallography (room temperature) (SaBphP2-PCM)
O=C(O)/C=C/c1ccc(O)cc1 [p-coumaric acid]	The pCA chromophore pocket is marked by the red box	
C=CC1=C(C)/C(=C/C2=NC(=C\c3[nH]c(/C=C4\NC(=O)C(C)=C4C=C)c(C)c3CCC(=O)O)/C(CCC(=O)O)=C2C)NC1=O [biliverdin]		The DED features, localized to the BV chromophore, indicate displacement of the BV
